Data from patent publication US7368137B2, “Smilagenin and its use” (priority 1999, dated 2008).

Assays:
[1] = system: m2 receptors on CHO cells; test: Expression of m2 receptors on CHO cells transfected with DNA for the m2 receptor (tritiated QNB binding); assay type: cell-based; details: for Effect on receptor expression - given as % increase compared to control (negative values in brackets): DMSO control, NS = No significant effect
Protocol: 1. Chinese hamster ovary (CHO) cells transfected with the a DNA fragment coding for a muscarinic receptor. The cell line used-for the majority of the experiments was a cell line expressing the m2 receptor.
The-effects of various compounds on the expression of m2 receptors on CHO cells transfected with DNA for the m2 receptor were investigated. Receptor numbers were assayed using tritiated QNB binding and subtracting non-specific binding. Compounds were dissolved in DMSO and DMSO was used as a control. Compounds were tested at a range of final concentrations. Compounds were also tested in the presence and absence of tamoxifen to try to distinguish an oestrogen receptor mediated mechanism. The results are summarized in the Table 2 below, where the compound used in the invention appears in bold, and data on other sapogenins is given for comparative purposes: […]

[2] = system: muscarinic receptors on cultured cardiac muscle cells; test: Muscarinic receptor expression on cultured neonatal cardiac muscle cells (tritiated QNB binding); assay type: cell-based, Sprague Dawley rats; details: NS = No significant effect
Protocol: 3. Cultured cardiac muscle cells obtained from neonatal Sprague Dawley rats. The cardiac muscle cells express muscarinic receptors, typically m2. The level of these receptors fails on prolonged culture and the effects of compounds of interest in preventing the fall in receptor numbers was investigated.
Cardiac muscle cells were isolated from the ventricular muscle of neonatal Sprague Dawley rats using standard techniques. Cells were cultured in vitro and muscarinic receptor numbers expressed on cell surfaces membrane fragments after homogenization of cells harvested at various time points were estimated using specific binding of tritiated QNB. […] The experiments were therefore designed to investigate the effects of the various compounds in inhibiting this decline in receptor numbers.

[3] = system: recombinant human muscarinic receptors in CHO cells; test: Muscarinic receptor density in CHO cells expressing recombinant human muscarinic receptors ([3H]-QNB); assay type: cell-based; details: smilagenin at 1 and 10 μM; FIG. 2
Protocol: In a CHO cell line expressing recombinant human muscarinic receptors in vitro, the number of muscarinic receptors tends to decline with time. Smilagenin (1-10 μM) incubated for 72 hours increases muscarinic receptor density.
Effect of smilagenin on muscarinic receptor density in CHO cells expressing recombinant human muscarinic receptors.
Chinese hamster ovary (CHO) cells expressing high levels of receptor (˜2.2 pmoles receptor/mg protein) were cultured in flasks (150 ml) for 24 hours before the start of the experiment. Vehicle (DMSO) and smilagenin (at 1 and 10 μM) were added to the medium for 48 h. The culture medium was discarded, the cells scraped off and resuspended in Hanks solution, centrifuged and m-receptor levels determined by incubating with [^3H]-QNB for 30 min followed by liquid scintillation counting. Protein levels were determined by a micro Lowry method.

Progesterone receptor = biological target: T1, Progesterone receptor (Homo sapiens, UniProt P06401); test: Activity at steroid receptors: progesterone
T1 sequence (P06401 1-933): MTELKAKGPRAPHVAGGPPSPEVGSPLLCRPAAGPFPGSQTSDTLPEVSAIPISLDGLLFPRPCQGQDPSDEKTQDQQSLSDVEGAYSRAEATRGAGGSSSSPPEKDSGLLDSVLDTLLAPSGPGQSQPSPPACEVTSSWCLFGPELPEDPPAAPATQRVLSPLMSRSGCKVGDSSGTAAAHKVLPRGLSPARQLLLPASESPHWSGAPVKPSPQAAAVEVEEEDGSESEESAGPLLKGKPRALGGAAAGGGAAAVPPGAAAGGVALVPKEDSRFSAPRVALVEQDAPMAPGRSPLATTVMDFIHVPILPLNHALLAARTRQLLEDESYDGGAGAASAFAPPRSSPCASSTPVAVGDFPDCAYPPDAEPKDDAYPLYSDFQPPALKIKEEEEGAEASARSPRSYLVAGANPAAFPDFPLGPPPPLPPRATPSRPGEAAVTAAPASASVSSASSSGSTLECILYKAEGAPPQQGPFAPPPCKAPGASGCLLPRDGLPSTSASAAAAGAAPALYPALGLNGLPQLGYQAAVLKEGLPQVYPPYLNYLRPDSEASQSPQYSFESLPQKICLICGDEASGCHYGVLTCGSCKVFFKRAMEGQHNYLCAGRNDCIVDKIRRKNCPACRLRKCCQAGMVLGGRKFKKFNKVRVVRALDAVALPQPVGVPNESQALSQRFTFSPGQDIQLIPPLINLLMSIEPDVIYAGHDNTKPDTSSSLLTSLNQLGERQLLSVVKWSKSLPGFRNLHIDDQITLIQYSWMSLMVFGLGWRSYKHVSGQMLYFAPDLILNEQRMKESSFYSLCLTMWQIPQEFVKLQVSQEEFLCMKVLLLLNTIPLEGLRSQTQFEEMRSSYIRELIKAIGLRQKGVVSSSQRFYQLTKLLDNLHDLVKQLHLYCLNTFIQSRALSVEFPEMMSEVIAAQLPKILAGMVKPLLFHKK
Excerpt: (§1) In identifying compounds that would have use in the treatment of SDAT and other diseases characterized by reductions in receptor numbers or synaptic transmission, the inventors have given consideration to the need to identify compounds that would-have the desired effect but would be devoid of any oestrogenic effects, as these would be unacceptable, particularly in male patients. A number of the compounds claimed to have activity in patent application DE 4303214A1 have marked oestrogenic activity and are therefore unacceptable.

[4] = system: muscarinic (M) receptor in the brain; test: Single point analysis of brain M receptor density in aged rats; assay type: in vivo, Sprague-Dawley rats; details: 18 mg/kg/day in chow over 3 months; 23-month-old rats; FIG. 3
Protocol: Methods: Single point analysis of brain M receptor density.
Sprague-Dawley rats, 23-month-old, (i.e. aged) were divided into 2 groups, aged-control and aged+smilagenin. Smilagenin (18 mg/kg/day) was mixed in the chow over the 3 month period; Male 4-6 month old rats acted as young controls. At the end of the 3-month treatment period, pairs of treated and control animals were sacrificed by cervical dislocation and the intact brain removed. Single point analysis of brain M receptor density was obtained.

oestrogen receptor = test: Oestrogenic activity
Excerpt: as §1

Glucocorticoid receptor = biological target: T2, Glucocorticoid receptor (Homo sapiens, UniProt P04150); test: Activity at steroid receptors: glucocorticoid
T2 sequence (P04150 1-777): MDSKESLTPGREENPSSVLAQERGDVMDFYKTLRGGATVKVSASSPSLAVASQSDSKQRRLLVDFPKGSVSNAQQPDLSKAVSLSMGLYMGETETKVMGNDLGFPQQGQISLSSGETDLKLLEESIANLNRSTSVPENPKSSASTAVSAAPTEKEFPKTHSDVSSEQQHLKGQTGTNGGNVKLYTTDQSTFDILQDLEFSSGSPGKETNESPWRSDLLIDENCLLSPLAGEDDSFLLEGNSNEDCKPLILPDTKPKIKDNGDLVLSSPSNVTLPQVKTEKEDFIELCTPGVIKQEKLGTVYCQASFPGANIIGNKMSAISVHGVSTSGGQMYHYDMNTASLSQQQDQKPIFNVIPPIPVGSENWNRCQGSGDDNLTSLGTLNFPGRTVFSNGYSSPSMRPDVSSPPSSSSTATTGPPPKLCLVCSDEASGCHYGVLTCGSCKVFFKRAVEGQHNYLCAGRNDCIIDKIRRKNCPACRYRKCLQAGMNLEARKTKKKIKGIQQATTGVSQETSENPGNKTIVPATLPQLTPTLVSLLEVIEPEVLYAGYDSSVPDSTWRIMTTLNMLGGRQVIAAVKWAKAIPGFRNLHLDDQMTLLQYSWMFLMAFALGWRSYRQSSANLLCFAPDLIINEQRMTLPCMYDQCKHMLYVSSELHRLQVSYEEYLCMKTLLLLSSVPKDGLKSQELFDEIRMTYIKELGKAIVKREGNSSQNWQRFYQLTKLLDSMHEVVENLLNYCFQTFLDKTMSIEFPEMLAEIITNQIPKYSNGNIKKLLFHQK
Excerpt: as §1

aged Sprague-Dawley rats = test: Cognitive function in the Y-maze test in aged rats; assay type: in vivo; details: 18 mg/kg/day in chow, 3 months intake; rats aged 23 months; FIG. 4
Protocol: Methods: Cognitive function in the Y-maze test
Sprague-Dawley rats aged 23 months (i.e. aged) were divided into aged-control or aged+smilagenin treatment group. Rats aged 3 to 4 months acted as young controls. The treatment group received 18 mg/kg/day of smilagenin in chow. Chow without smilagenin was given to each rat after the chow containing smilagenin had been consumed. Three months later the animals were tested in the Y-maze as follows; an equilateral Y-shaped maze was used composed of three 45 cm arms with copper rods in the floor at the end of each arm which conduct electricity and which were 0.2 cm in diameter, 14 cm in length and with a 1 cm gap between them. There were 15 W signal lights at each end. A safe region was indicated by a light signal in an arm where there was no electricity. If a rat moved to a safe region, a correct reaction was recorded. If it moved to an arm where there was no light, an error reaction was recorded. Following the response, an electric shock was again given after a 5 seconds interval. Twenty trials in total were conducted and the correct reaction rate was obtained: number of correct reactions/(20)/mean response time. Seven such training sessions were completed over seven days. Memory tests were then repeated 15 and 30 days later (=4 months) using the same techniques as just described.

Testosterone receptor = biological target: T3, Testosterone receptor (Homo sapiens, UniProt P10275); test: Activity at steroid receptors: testosterone
T3 sequence (P10275 1-920): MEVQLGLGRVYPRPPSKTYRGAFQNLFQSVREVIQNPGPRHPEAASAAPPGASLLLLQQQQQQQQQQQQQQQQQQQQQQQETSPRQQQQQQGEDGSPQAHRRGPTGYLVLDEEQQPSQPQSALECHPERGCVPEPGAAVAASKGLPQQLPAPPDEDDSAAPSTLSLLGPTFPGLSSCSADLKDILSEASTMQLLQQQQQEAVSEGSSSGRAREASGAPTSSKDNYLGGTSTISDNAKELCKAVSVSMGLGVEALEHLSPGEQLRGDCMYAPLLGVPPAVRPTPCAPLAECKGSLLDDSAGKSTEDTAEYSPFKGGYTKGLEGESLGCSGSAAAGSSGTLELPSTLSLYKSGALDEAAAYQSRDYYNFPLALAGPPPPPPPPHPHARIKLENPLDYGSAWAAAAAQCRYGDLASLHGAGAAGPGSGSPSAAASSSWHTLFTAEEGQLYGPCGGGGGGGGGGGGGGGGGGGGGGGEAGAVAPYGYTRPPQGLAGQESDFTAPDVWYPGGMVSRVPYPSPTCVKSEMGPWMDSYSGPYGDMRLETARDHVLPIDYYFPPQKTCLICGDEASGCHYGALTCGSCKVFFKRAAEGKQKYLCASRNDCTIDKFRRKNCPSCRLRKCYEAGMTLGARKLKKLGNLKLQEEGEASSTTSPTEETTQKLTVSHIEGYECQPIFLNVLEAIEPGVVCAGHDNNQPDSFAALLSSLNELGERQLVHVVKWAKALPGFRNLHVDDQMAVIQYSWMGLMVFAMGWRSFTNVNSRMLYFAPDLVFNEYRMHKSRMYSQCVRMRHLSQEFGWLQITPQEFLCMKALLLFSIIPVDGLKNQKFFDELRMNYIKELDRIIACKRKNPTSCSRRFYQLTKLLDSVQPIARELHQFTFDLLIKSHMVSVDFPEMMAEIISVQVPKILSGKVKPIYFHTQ
Excerpt: as §1

[5] = system: muscarinic receptors in PC12 cells; test: Muscarinic receptor number in PC12 cells incubated with β-amyloid (radio-labeled ligand binding); assay type: cell-based
Protocol: Other in vitro assays have been employed to establish the effects of smilagenin. In particular various neuroblastoma cell lines including SKN-SN and SH-SY5Y cells as well as phaechromoacytoma cell lines have been cultured in vitro in the presence of β-amyloid fragments or serum depletion. […] These techniques included Trypan blue exclusion, chemiluminescence and release of lactate dehydrogenase. Of most interest was the observation that incubation of cells, in particular PC12 cells, with β-amyloid reduced the number of muscarinic receptors measured using radio-labeled ligand binding techniques.

[6] = molar concentration of compound 10^−5

Sequence of m2 receptors on CHO cells (P08172 whole entry, the tested form may be a part): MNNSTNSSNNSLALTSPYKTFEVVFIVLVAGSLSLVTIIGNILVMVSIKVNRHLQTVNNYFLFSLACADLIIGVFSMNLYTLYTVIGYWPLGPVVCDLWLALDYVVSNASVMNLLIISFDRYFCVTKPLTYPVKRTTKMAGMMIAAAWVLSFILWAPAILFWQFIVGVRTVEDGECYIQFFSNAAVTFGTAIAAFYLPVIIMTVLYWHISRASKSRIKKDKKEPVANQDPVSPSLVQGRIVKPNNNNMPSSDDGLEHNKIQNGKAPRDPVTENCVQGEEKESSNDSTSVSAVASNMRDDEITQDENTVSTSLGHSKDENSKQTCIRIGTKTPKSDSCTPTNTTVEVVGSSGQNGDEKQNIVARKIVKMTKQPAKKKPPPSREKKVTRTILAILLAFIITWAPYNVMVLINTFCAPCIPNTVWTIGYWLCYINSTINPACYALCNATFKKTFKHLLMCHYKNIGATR
Sequence of muscarinic receptors on cultured cardiac muscle cells (P10980 whole entry): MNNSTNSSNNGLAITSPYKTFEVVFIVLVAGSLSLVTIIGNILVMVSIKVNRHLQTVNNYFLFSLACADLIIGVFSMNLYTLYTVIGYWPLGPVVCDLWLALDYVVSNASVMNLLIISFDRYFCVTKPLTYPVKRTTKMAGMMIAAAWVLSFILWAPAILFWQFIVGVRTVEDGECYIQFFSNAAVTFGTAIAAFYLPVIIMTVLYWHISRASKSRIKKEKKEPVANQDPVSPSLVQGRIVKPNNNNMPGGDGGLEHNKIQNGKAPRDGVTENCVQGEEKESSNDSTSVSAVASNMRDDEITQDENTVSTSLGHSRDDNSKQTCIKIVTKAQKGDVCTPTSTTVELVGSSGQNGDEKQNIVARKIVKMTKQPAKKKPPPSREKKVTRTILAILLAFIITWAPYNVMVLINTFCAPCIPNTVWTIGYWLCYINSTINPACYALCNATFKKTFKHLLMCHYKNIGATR

Molecule | Effect on receptor expression - given as % increase compared to control (negative values in brackets) [1, 6] [%] | Concentration of compound causing a significant increase in number of receptors expressed on neonatal cardiac muscle after 10 days in vitro culture [2] | Effect on muscarinic receptor number/density over the culturing period [3] | Effect on receptor expression - given as % increase compared to control (negative values in brackets) ([1]; molar concentration of compound 10^−6) [%] | Effect of tamoxifen on the increase in muscarinic receptor number on CHO cells ([1]; tested in the presence and absence of tamoxifen) | Activity at progesterone receptor (Progesterone receptor) | Brain M receptor numbers compared to aged controls [4] | Oestrogenic activity (oestrogen receptor) | Activity at glucocorticoid receptor (Glucocorticoid receptor) | Cognitive function (learning and memory performance) in Y-maze (aged Sprague-Dawley rats) | Activity at testosterone receptor (Testosterone receptor) | Effect on β-amyloid-induced reduction in muscarinic receptor numbers [5]
C[C@@H]1CC[C@@]2(OC1)O[C@H]1C[C@H]3[C@@H]4C[C@@H](O)[C@@]5(O)C[C@@H](O)CC[C@]5(C)[C@H]4CC[C@]3(C)[C@H]1[C@@H]2C [Anzurogenin D, reference compound] | 22 | 10^−6M |  |  |  |  |  |  |  |  |  | 
Astragaloside |  | 10^−5M |  |  |  |  |  |  |  |  |  | 
smilagenin | 57 | 10^−6M | prevents the decrease in muscarinic receptor number in a concentration-dependent manner | 18 | not antagonized by tamoxifen | no activity | increased M receptor numbers | does not display oestrogenic activity | no activity | reversed the decline in cognitive function | no activity | ameliorated
